In US20250352676A1, “N-Cyclopropyl-1-(4-(4-(Fluoro-18f)Phenyl)Pyrimidin-5-Yl)-N-Methylpiperidine- 4-Carboxamide and Uses in PET Imaging” (Emory University, priority 2022, published 2025):
Like-named read-outs stand apart in the source and are kept apart here.

Key:
[1] = target: T1, human CYP46A1 (hCYP46A1) (Homo sapiens, UniProt Q9Y6A2); experiment: Cell uptake studies in HEK cells overexpressing hCYP46A1; format: cell-based
T1 construct: expressed in transfected cells; host or cells: HEK cells (HEK-CYP46A1)
T1 sequence (Q9Y6A2 whole entry): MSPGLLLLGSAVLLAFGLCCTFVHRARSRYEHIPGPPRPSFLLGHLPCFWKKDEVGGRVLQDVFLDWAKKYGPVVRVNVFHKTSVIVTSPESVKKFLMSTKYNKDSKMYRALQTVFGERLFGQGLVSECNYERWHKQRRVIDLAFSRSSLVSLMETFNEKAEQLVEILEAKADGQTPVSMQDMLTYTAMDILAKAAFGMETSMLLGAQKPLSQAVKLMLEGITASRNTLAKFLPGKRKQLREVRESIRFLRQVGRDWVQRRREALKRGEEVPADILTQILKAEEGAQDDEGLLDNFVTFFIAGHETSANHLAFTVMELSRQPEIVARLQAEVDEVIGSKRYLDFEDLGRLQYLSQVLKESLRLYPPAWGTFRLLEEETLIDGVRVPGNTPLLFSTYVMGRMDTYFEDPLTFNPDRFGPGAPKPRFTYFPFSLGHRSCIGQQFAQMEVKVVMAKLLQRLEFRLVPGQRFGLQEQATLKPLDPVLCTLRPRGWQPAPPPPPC
Method: Cell uptake studies were conducted with transfected human embryonic kidney (HEK) cells overexpressing human CYP46A1 (hCYP46A1) and respective controls.
Cell uptake assays were conducted using hCYP46A1 enzyme-HEK cell line (HEK-CYP46A1) and HEK control cells were cultured in Dulbecco's modified Eagle's medium (DMEM) supplemented with 10% fetal bovine serum and antibiotics (0.1 mg/ml streptomycin and 100 IU/ml penicillin). Cells were kept under standard conditions at 37° C. and 5% CO2 and subsequently subpassaged using a solution of 0.25% trypsin and 0.02% EDTA. For cell uptake measurements, HEK-CYP46A1 and HEK control cells were seeded into a 24-well plate at a density of 2×10^5 cells per well the day before the experiment. The medium was replaced with fresh DMEM including ^18F-CHL-2205 (ca. 74 kBq per well) and incubated at 37° C. for 15, 30, and 45 min. The supernatant was collected, and the cells were washed twice with cold 1×phosphate-buffered salinc (PBS) and then harvested by adding 200 μl of 1N NaOH followed by additional two times rinsing with 1×PBS. The blocking assay was performed with the HEK-CYP46A1 cells. […] Supernatant and cell suspensions including 1×PBS from each wash step were collected and then measured using a gamma counter, whereas cell uptake was expressed as the percentage of the added dose after decay correction.

[2] = target: T2, CYP46A1 (Homo sapiens, UniProt Q9Y6A2); experiment: Competitive displacement of 18F-CHL-2205; format: binding
T2 sequence (Q9Y6A2 whole entry): as above

[3] = target: T3, CYP46A1 (Macaca mulatta, UniProt I2CYF7); experiment: In vitro autoradiography of NHP brain; format: binding, NHPs; parameters: from tissue; host or cells: NHP brain sections; details: excess blocker
T3 sequence (I2CYF7 29-500): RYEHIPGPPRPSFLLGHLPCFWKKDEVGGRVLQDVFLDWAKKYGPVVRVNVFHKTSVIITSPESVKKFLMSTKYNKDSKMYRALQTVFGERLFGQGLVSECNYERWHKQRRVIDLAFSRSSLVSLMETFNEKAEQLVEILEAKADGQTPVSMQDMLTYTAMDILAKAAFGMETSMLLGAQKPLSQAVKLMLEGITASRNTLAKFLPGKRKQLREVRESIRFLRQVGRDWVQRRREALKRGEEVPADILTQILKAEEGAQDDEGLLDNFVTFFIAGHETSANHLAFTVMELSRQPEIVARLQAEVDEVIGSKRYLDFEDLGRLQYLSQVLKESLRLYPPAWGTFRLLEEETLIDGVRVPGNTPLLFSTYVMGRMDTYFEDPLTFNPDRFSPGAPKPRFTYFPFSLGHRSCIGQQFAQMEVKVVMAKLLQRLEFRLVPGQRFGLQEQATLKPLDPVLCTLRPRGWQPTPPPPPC
Method: PET imaging experiments were conducted in non-human primates (NHPs). Consistent with observations from rodent data, the signal intensity of tracer binding correlated with high abundancy regions for CYP46A1, including the putamen, caudate, and limbic cortical regions such as superficial layers of temporal, insular, and cingulate cortex, as evidenced by in vitro autoradiograms of the brain.

[4] = target: T3, CYP46A1; experiment: Target occupancy PET study in rhesus monkeys; format: in vivo; parameters: from tissue; host or cells: brain of living rhesus monkeys; details: rhesus monkey; dose of 0.9 μmol/kg intravenous, all regions
Method: Four rhesus monkeys (4.8 to 9.3 kg) were anesthetized by intramuscular injection of ketamine (10 mg/kg) and then put on the MRI scanning bed in the supine position. Whole-brain images were acquired. For PET, the subjects were initially anesthetized with ketamine (10 mg/kg, intramuscularly), put on the scanning bed, and maintained under anesthesia with 2% isoflurane and 98% oxygen. All rhesus monkeys were supine, and a stereotactic frame was used to fix the position of the head. […] PET/CT and MR images were co-registered. TACs were derived from the respective volumes of interest and were presented as SUVs, which were decay-corrected to the time of radioligand injection. Whole-blood samples were collected from an arterial catheter to measure radioactivity in whole blood and plasma. […]
Then, the mixture was injected into a high-performance liquid chromatography (HPLC) system equipped with a semipreparative IIPLC column and an ultraviolet detector with the wavelength set at 254 nm. […] The HPLC fractions were collected at 30-s intervals for 13 min; each fraction was counted with automatic gamma well counter. […] Tissue volumes of distribution (VT) and non-displaceable binding potential (BPND) values were determined from a two-tissue compartment model, with metabolite-corrected arterial input function.

[5] = target: T4, CYP46A1 (Mus musculus, UniProt Q9WVK8); experiment: Brain binding in Cyp46A1 knockout versus control mice; parameters: from tissue; host or cells: mouse brain (Cyp46A1+/+ controls; 3xTg-AD mice and controls)
T4 sequence (Q9WVK8 whole entry): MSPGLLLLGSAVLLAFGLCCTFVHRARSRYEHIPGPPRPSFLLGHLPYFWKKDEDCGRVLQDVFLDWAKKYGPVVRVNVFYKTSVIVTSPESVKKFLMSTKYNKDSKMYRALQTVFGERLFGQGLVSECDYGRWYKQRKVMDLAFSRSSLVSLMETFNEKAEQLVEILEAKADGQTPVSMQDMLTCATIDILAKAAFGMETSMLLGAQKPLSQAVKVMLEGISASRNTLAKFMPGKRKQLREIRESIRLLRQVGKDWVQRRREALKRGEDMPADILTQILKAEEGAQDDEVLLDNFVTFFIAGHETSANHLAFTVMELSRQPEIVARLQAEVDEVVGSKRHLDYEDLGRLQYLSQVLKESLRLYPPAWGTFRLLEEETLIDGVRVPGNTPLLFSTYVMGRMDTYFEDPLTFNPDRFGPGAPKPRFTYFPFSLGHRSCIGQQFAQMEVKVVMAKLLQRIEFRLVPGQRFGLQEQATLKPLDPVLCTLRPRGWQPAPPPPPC
Description: A consideration in CNS-targeted PET constitutes the ability of the tracer to selectivity bind to a target protein while lacking interactions with other abundant brain proteins.

[6] = target: T4, CYP46A1; experiment: Saturation binding studies with brain homogenates; parameters: species or system rodent
Method: Experiments were performed to determine whether a targeted PET imaging probe would allow the quantification of cholesterol metabolism in the living brain, ultimately paving the way for mechanistic studies on brain cholesterol metabolism in humans. […] The tracer distribution matched closely with the Allen Brain Atlas distribution of CYP46A1 expression data in the mouse brain. Quantification of CYP46A1 by Western blot analysis in the same brain regions confirmed that tracer binding patterns were in concert with CYP46A1 expression across all tested brain regions. Saturation binding studies were performed to determine the dissociation constant (KD) of the probe as well as to assess the amount of available CYP46A1 protein (Bmax) in selected brain regions.

[7] = test system: major CNS targets, including common G protein-coupled receptors, ion channels, enzymes, and transporters; experiment: Pharmacological screening on major CNS targets; details: testing concentration of 10 μM
[8] = Incubation with mouse liver microsomes (radiodefluorination); format: in vitro ADME
[9] = Incubation with rat liver microsomes (radiodefluorination); format: in vitro ADME
[10] = format: in vitro ADME, VHP
Method: (§1) PET imaging studies were conducted by intravenous injection of 18F-CHL-2205 to rats. […] Greater than 99% of the brain signal was attributed to the intact parent tracer. The brain signal was substantially devoid of interference by radiometabolites. By ex vivo studies, greater than 90% of the signal in the brain was specific at 15, 30, and 45 min after injection.

[11] = Incubation with human liver microsomes (radiodefluorination); format: in vitro ADME
[12] = target: T5, CYP46A1 (Rattus norvegicus, UniProt A0ACM8QFK4); experiment: PET imaging and ex vivo brain studies after intravenous injection to rats; format: in vivo
T5 construct: from tissue; host or cells: brain of living rats
T5 sequence (A0ACM8QFK4 29-500): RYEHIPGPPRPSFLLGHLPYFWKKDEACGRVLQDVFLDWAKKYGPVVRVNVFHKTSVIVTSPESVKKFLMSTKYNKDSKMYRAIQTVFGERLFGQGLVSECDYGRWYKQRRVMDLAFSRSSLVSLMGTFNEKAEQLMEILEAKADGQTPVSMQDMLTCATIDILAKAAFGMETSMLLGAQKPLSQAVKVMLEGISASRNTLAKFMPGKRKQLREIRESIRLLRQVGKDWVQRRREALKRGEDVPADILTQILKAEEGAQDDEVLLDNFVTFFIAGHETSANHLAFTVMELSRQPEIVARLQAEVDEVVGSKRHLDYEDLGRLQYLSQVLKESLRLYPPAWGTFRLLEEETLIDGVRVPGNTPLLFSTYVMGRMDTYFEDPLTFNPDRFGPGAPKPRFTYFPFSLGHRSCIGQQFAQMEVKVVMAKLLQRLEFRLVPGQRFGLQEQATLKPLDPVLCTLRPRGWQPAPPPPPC
Method: as §1
(§2) CD1, 3×Tg-AD mice and respective controls (sex: female, age: 9 to 13 months), as well as rats were purchased from established commercial vendors and kept under a 12-hour light/12-hour dark cycle, with ad libitum food and water. Animals were allowed to acclimatize for at least 1 week before the start of the experimental procedures. Mice and rats were anesthetized with isoflurane and scanned in a μPET/computed tomography (CT) scanner for 60 min after tail-vein injection of 18F-CHL-2205. Data were reconstructed in user-defined time frames. Time-activity curves (TACs) were calculated with predefined regions of interest. Results are presented as area under the curve (AUC) from the respective TACs of SUVs, indicating the decay-corrected radioactivity per cubic centimeter, divided by the injected dose per gram of body weight.

[13] = Dosimetry experiments; format: in vivo
[14] = target: T2, CYP46A1; experiment: Clinical PET study in healthy volunteers; format: in vivo; parameters: from tissue; host or cells: brain of living healthy volunteers; details: CYP46A1-rich regions
Method: Eight healthy participants underwent a PET scan with 18F-CHL-2205, followed by a magnetic resonance imaging (MRI) scan for anatomical orientation. Because of the physical half-life of fluorine-18 (109.8 min), the tracer was produced on the day of the experiment in a designated hot cell that provided shielding from radiation exposure and was equipped with an automated synthesis module. PET scans were performed for a duration of 90 min, and the data were subsequently reconstructed to allow the assessment of tracer uptake as a surrogate for CYP46A1 abundancy and cholesterol metabolism.
Experiments were performed to determine whether CYP46A1-targeted PET was sensitive to sex differences in brain cholesterol metabolism. […] Conversely, there was no difference in tracer uptake for low-target density regions such as the cerebellum and brainstem. These findings imply that considerable sex differences in brain cholesterol metabolism via CYP46A1 exist in humans.
An open-label clinical study to evaluate the tolerability, safety, and tracer performance characteristics of 18F-CHL-2205 in healthy volunteers (four men and four women, 22 to 31 years of age) was conducted. […] Volumes of distribution were further determined by Logan graphical analysis and were used to calculate binding potentials. […]

[15] = target: T4, CYP46A1; experiment: PET imaging in 3xTg-AD mice and controls; format: in vivo; parameters: from tissue; host or cells: mouse brain (Cyp46A1+/+ controls; 3xTg-AD mice and controls); details: baseline, intravenous administration
Method: Tracer binding was assessed and validated in the 3xTg-AD mouse model. […] Hippocampal uptake of the CYP46A1 tracer was compared between 3xTg-AD mice and respective controls.
as §2

Bmax (amount of available CYP46A1 protein) ([6]; cerebellum) | Bmax (amount of available CYP46A1 protein) ([6]; striatum) | off-target activity [7] | stability against radio defluorination [8] | stability against radio defluorination [9] | stability against radio defluorination [10] | stability against radio defluorination [11] | brain signal attributed to the intact parent tracer ([12]; brain) | specific signal in the brain ([12]; ex vivo studies, 15, 30, and 45 min after injection) | brain uptake after systemic administration ([12]; rats, intravenous injection, PET) | effective dose [13] | cell uptake in transfected cells compared to controls ([1]; HEK cells overexpressing hCYP46A1 vs HEK controls) | SUV15-30 in the caudate and putamen, women versus men [14] | tracer binding in brains of Cyp46A1−/− animals versus control ([5]; Cyp46A1−/− vs Cyp46A1+/+ mice) | hippocampal time-activity curves (TACs) in 3xTg-AD mice versus controls [15] | SMILES | tracer signal of the transfected cell population on co-incubation ([1]; escalating doses, HEK-CYP46A1 cells, 18F-CHL-2205 tracer) | displacement of 18F-CHL-2205 [2] | autoradiography signal on co-incubation [3] | receptor occupancy at 0.9 µmol/kg [4] | tracer binding in control brains under blockade ([5]; excess dose, Cyp46A1+/+ brains)
– | – | – | – | – | – | – | – | – | – | – | – | – | – | – | O=C(c1cccnc1-c1ccncc1)N1CCC(O)(Cc2ccccc2)CC1 [soticlestat] | attenuated in a dose-dependent manner | competitive displacement | relative signal reduction | > 90% | reduced to the signal observed in Cyp46A1−/− animals
21.9 fmol/g | 117.3 fmol/g | no off-target activity | stable against radio defluorination | stable against radio defluorination | stable against radio defluorination | stable against radio defluorination | Greater than 99% | greater than 90% | rapid tracer uptake into the brain | 0.012 mSv/MBq | fivefold increase | higher in women than in men | signal diminished | consistently higher | CN(C(=O)C1CCN(c2cncnc2-c2ccc([18F])cc2)CC1)C1CC1 [18F-CHL-2205, N-cyclopropyl-1-(4-(4-(fluoro-18F)phenyl)pyrimidin-5-yl)-N-methylpiperidine-4-carboxamide] | – | – | – | – | –
– | – | – | – | – | – | – | – | – | – | – | – | – | – | – | C[C@@H](c1ncncc1F)[C@](O)(Cn1cncn1)c1ccc(F)cc1F [voriconazole] | – | competitive displacement | – | – | –
